Data: patent US20070122483A1, “Fluocinolone acetonide drug substance polymorphic interconversion” (priority 2005, published 2007)

Experiments:
[1] = background statement; cited from earlier work
[2] = Polymorphic changes of FA after exposure to water (slurry), followed by 13C CP/MAS NMR; format: physicochemical; conditions: slurry 0.5 g FA in 10 ml water, stirred at room temperature for seven days, filtered and dried
Procedure: Slurries containing 0.5 g FA in 10 ml of water were covered and stirred at room temperature for seven days. To remove the water, the samples were filtered and dried overnight at room temperature.
Approximately 80-100 mg of sample was packed inside a 7 mm rotor. Magic-angle spinning (MAS) NMR spectra of fluocinolone acetonide (FA) were acquired using a Varian Unity Inova 400 operating at 399.8 and 100.5 MHz for ^1H and ^13C respectively. The spectra were acquired using cross-polarization (CP) with total sideband suppression and a spinning speed of 4 kHz. Additional acquisition and processing parameters are noted below:
All spectra were externally referenced to hexamethylbenzene (HMB) (^13C, aliphatic peak at 17.4 ppm).

For `CC1(C)O[C@@H]2C[C@H]3[C@@H]4C[C@H](F)C5=CC(=O)C=C[C@]5(C)[C@@]4(F)[C@@H](O)C[C@]3(C)[C@]2(C(=O)CO)O1` [Fluocinolone acetonide], the solubility in water [1] is listed as “practically insoluble” and the “polymorphic changes after exposure to water for an extended time period” value [2] is listed as “all polymorphic forms interconvert to the same form”.
